Measurements taken from patent US9447136B2, “Semisynthetic derivatives of Nystatin A1” (BLIRT S.A., priority 2012, dated 2016).

Columns and labels:
Assay in all cases: Antifungal activity in vitro, serial dilution in RPMI 1640
Format in all cases: cell-based
[1] = test system: Candida krusei DSM 6128; details: Table 2A; RPMI 1640, pH 7.0
Protocol: (§1) For the determination of antifungal activity in vitro we used method of serial dilution in buffered medium RPMI 1640, pH 7.0, in a 96-wells microplates, according to the standard procedure (National Committee for Clinical Laboratory Standards. Reference method for broth dilution antifungal susceptibility testing of yeast, approved standard, 2nd ed. M27-A2 vol. 22 Wayne, Pa., 2002). The optical density of cells suspension was measured using a microplates reader (Victor^3, Perkin-Elmer) at the wavelength λ=531 nm (A531). On the basis of obtained results the diagrams of relation between A531 values and concentration of examined compound were made. From these graphs, the IC50 values were read, which were the interpolated concentrations of a tested compound, at which the A531 value was exactly 50% of the A531 value for the control sample. Moreover, MIC values, that are the lowest concentration of tested compound at which the A531 value were at most 20% of the A531 value measured for the control sample.

[2] = test system: Candida lusitaniae DSM 70102; details: Table 2A; RPMI 1640, pH 7.0
Protocol: as §1

[3] = test system: Saccharomyces cerevisiae ATCC 9763; details: Table 2A; RPMI 1640, pH 7.0; A531 at most 20% of control
Protocol: as §1

[4] = test system: Candida albicans ATCC 10231; details: Table 2A, RPMI 1640, pH 7.0; for Antifungal activity Candida albicans ATCC 10231 IC50: A531 50% of control; for Antifungal activity Candida albicans ATCC 10231 MIC: A531 at most 20% of control
Protocol: as §1

[5] = test system: Candida tropicalis KKP 334; details: Table 2A; RPMI 1640, pH 7.0
Protocol: as §1

[6] = test system: Candida glabrata DSM 11226; details: Table 2A; RPMI 1640, pH 7.0
Protocol: as §1

| Compound | Antifungal activity Candida krusei DSM 6128 MIC [1] | Antifungal activity Candida lusitaniae DSM 70102 MIC [2] | Antifungal activity Saccharomyces cerevisiae ATCC 9763 MIC [3] | Antifungal activity Candida albicans ATCC 10231 IC50 [4] | Antifungal activity Candida albicans ATCC 10231 MIC [4] | Antifungal activity Candida tropicalis KKP 334 MIC [5] | Antifungal activity Candida glabrata DSM 11226 MIC [6] |
| --- | --- | --- | --- | --- | --- | --- | --- |
| N-{3-[2-(piperidin-1-yl)ethyl]thioureidyl}nystatin A1 [Compound N12] | 16 µg/mL | 4 µg/mL | 8 µg/mL | 4.20 µg/mL | 8 µg/mL | 8 µg/mL | 8 µg/mL |
| N—[N′-2-(pyrrolidin-1-yl)ethylsuccinimidyl]nystatin A1 [Compound N11] | 8 µg/mL | 4 µg/mL | 8 µg/mL | 3.91 µg/mL | 8 µg/mL | 8 µg/mL | 8 µg/mL |
| N-{3-[2-(morpholin-1-yl)ethyl]thioureidyl}nystatin A1 [Compound N13] | 16 µg/mL | 8 µg/mL | 8 µg/mL | 3.88 µg/mL | 8 µg/mL | 8 µg/mL | 16 µg/mL |
| CC1OC(O[C@H]2/C=C/C=C/C=C/C=C/CC/C=C/C=C/[C@H](C)[C@@H](O)[C@@H](C)[C@H](C)OC(=O)C[C@H](O)C[C@H](O)C[C@H](O)CC[C@@H](O)[C@H](O)CC3(O)C[C@H](O)[C@@H](C(=O)O)[C@H](C2)O3)C(O)C(NC2CC(=O)N(CC(C)(C)CN(C)C)C2=O)C1O (stereo partly drawn) [Compound N10, N—[N′-3-(N″,N″-dimethylamino)-2,2-dimethylpropylsuccinimidyl]nystatin A1] | 16 µg/mL | 4 µg/mL | 8 µg/mL | 5.47 µg/mL | 8 µg/mL | 8 µg/mL | 16 µg/mL |
| C[C@@H]1[C@H](O)[C@@H](C)/C=C/C=C/CC/C=C/C=C/C=C/C=C/[C@H](O[C@@H]2O[C@H](C)[C@@H](O)[C@H](NC3CC(=O)N(CCCN(C)C)C3=O)[C@@H]2O)C[C@@H]2O[C@](O)(C[C@@H](O)C[C@@H](O)[C@H](O)CC[C@@H](O)C[C@@H](O)CC(=O)O[C@H]1C)C[C@H](O)[C@H]2C(=O)O (stereo partly drawn) [Compound N6, N—[N′-3-(N″,N″-dimethylamino)propylsuccinimidyl]nystatin A1] | 16 µg/mL | 4 µg/mL | 8 µg/mL | 5.52 µg/mL | 8 µg/mL | 8 µg/mL | 16 µg/mL |
| C[C@@H]1[C@H](O)[C@@H](C)/C=C/C=C/CC/C=C/C=C/C=C/C=C/[C@H](O[C@@H]2O[C@H](C)[C@@H](O)[C@H](NC(=S)NCCN3CCN(C)CC3)[C@@H]2O)C[C@@H]2O[C@](O)(C[C@@H](O)C[C@@H](O)[C@H](O)CC[C@@H](O)C[C@@H](O)CC(=O)O[C@H]1C)C[C@H](O)[C@H]2C(=O)O [Compound N15, N-{3-[2-(4-methylpiperazin-1-yl)ethyl]thioureidyl}nystatin A1] | 16 µg/mL | 4 µg/mL | 8 µg/mL | 5.74 µg/mL | 8 µg/mL | 8 µg/mL | 16 µg/mL |
